pIC50: −log10 of the molar value.
Key:
[1] = system: NCI-H446 and NCI-H69 human small cell lung cancer xenograft model; test: In vivo anti-tumor efficacy, xenograft model; set-up: species or system BALB/c nude mice; conditions: 15 mg/kg po., BID × 10 days, QD × 19 days, treatment 29 days
Protocol: This study is to examine the anti-tumor efficacy of test compounds in NCI-H446 and NCI-H69 human small cell lung cancer xenograft model in BALB/c nude mice. Each mouse was inoculated subcutaneously at the right flank region with NCI-H446 (3×10^6) and NCI-H69 cells (5×10^6) in 0.1 mL of PBS and Matrigel (1:1) for tumor development. The mouse were randomized according to tumor size and weight, the treatment began when the mean tumor size reached 100-200 mm^3. Anti-tumor activity was assessed according to relative tumor inhibition rate (TGI).
Tumor volumes were measured in two dimensions using a caliper, and the volume was expressed in mm^3 using the formula: V=0.5a×b^2 where a and bare the long and short diameters of the tumor, respectively. Statistical analysis of difference in tumor volume among the groups were performed using one-way ANOVA. All data was analyzed using SPSS 22.0 software. p<0.05 was considered to be statistically significant.

[2] = molecular target: Aurora B (Homo sapiens, UniProt Q96GD4); test: Aurora B kinase assay (mobility shift assay); type: biochemical; conditions: ratio of Aurora B IC50 to Aurora A IC50
Chain of Aurora B (Q96GD4 whole entry): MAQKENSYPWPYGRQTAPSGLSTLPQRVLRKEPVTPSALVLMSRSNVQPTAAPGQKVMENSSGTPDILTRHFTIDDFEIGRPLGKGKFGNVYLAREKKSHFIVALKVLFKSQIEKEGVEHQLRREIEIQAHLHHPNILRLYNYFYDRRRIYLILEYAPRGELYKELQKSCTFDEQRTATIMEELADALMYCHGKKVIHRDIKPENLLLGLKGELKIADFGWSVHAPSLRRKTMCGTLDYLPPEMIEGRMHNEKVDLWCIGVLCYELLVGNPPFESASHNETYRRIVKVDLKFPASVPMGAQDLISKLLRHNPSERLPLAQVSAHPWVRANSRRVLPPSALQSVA
Protocol: (§1) Example A: Evaluation of Aurora a and Aurora B Inhibitory Effect—Kinase Assay
(§2) The inhibitory activities of a test compound against Aurora A and Aurora B were measured according to the following method.
(§3) The IC50 value of Aurora A and Aurora B kinase was performed by Sundia MediTech Co. Ltd. using Mobility shift assay.
(§4) • (1) Prepare a 1× kinase buffer [50 mM 4-(2-hydroxyethyl)-1-piperazineethanesulfonic acid (HEPES), PH 7.5, 0.01% Brij-35, 10 mM MgCl2, 2 mM dithiothreitol (DTT)]. • (2) Prepare compound:
The testing compound was dissolved with DMSO. The testing compound was diluted up to 100× final concentration in a 384-well plate. Transfer 250 nL of the compound dilution to a 384-well assay plate using Echo 550. 100% DMSO of 250 nL was added to the negative control well and the positive control well. • (3) Prepare a 2.5× enzyme solution using the above 1× kinase buffer. • (4) Add 10 μL of the 2.5× enzyme solution to the compound well and the positive control well of the 384-well assay plate.
Conversion %_sample is conversion rate data of samples. Conversion %_min is mean value of negative control (conversion rate data without enzyme activation). Conversion %_max is mean positive control (conversion rate data without compound).
The log of concentration is on the X axis, and the percentage inhibition is on the Y axis.

[3] = molecular target: T1, Aurora A (Homo sapiens, UniProt O14965); test: Aurora A kinase assay (mobility shift assay); type: biochemical
T1 sequence (O14965 1-403): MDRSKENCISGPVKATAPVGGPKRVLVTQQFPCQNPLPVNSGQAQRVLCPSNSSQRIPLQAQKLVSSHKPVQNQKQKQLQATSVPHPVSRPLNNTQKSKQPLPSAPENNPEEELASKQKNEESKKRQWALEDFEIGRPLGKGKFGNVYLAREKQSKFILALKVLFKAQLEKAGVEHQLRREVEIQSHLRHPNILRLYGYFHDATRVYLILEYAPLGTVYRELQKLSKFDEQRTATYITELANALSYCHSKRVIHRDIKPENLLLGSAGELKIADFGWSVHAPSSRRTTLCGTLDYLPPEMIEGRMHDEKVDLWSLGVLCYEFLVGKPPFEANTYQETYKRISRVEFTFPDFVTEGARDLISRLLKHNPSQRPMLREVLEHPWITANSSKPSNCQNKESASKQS
Protocol: as §1, §2, §3, §4
The testing compound was dissolved with DMSO. The testing compound was diluted up to 100× final concentration in a 384-well plate. Transfer 250 nL of the compound dilution to a 384-well assay plate using Echo 550. […] Add 10 μL of the 1× kinase buffer to the negative control well. • (5) The 384-well plate was centrifuged at 1000 rpm for 30 seconds and incubated at room temperature for 10 min. • (6) A mixture of ATP and Kinase substrate 21 with a final concentration of 25/15× was prepared by the 1× kinase buffer. • (7) Add 15 µL of the mixture of 25/15×ATP and kinase substrate solution 21 to start reaction. • (8) The 384-well plate was centrifuged at 1000 rpm for 30 seconds and incubated at room temperature. • (9) 30 µL of the stop and detection buffer was added to stop the kinase reaction and centrifuged at 1000 rpm for 30 seconds. • (10) Collect data on Caliper EZ ReaderII. […]

[4] = PK in rat; type: in vivo, SD male rats
Protocol: The compounds were dissolved into 10% DMSO, 30% PEG400, and 60% saline to obtain a solution. SD male rats were given the compound orally and intravenously. Then plasma samples were collected at 0 hour (pre-dose), 0.25, 0.5, 1, 2, 4, 7, 24 hours post-dose. Plasma drug concentration was detected by LC-MS/MS. Pharmacokinetic parameters were calculated using WinNonlin's software with non-compartmental model.

| Structure (SMILES) | TGI TV(%) [1] | TV (mean ± sem) [1] | further results |
| --- | --- | --- | --- |
| Cc1cc(Nc2nc(C[C@@]3(C(=O)O)CCN(Cc4cccc(Cl)c4F)[C@H](C)C3)cc(C)c2F)n[nH]1 [Example 78, (2R,4R)-1-(3-chloro-2-fluorobenzyl)-4-((5-fluoro-4-methyl-6-((5-methyl-1H-pyrazol-3-yl)amino)pyridin-2-yl)methyl)-2-methylpiperidine-4-carboxylic acid] | 96% | 65 ± 14 mm^3 | – |
| Cc1cc(Nc2nc(C[C@@]3(C(=O)O)CCN(Cc4cccc(Cl)c4F)[C@H](C)C3)ccc2F)[nH]n1 [Example 5, (2R,4R)-1-(3-chloro-2-fluorobenzyl)-4-((5-fluoro-6-((3-methyl-1H-pyrazol-5-yl)amino)pyridin-2-yl)methyl)-2-methylpiperidine-4-carboxylic acid] | 98% | 27 ± 5 mm^3 | – |
| Cc1cc(Nc2cc(Cl)c(F)c(C[C@@]3(C(=O)O)CCN(Cc4cccc(Cl)c4F)[C@H](C)C3)n2)n[nH]1 [Example 72, (2R,4R)-1-(3-chloro-2-fluorobenzyl)-4-((4-chloro-3-fluoro-6-((5-methyl-1H-pyrazol-3-yl)amino)pyridin-2-yl)methyl)-2-methylpiperidine-4-carboxylic acid] | 89% | 176 ± 25 mm^3 | – |
| CC(=O)c1cc(Nc2cc(C)[nH]n2)nc(CC2(C(=O)O)CCN(Cc3cccc(Cl)c3F)CC2)c1F [Example 69, 4-((4-acetyl-3-fluoro-6-((5-methyl-1H-pyrazol-3-yl)amino)pyridin-2-yl)methyl)-1-(3-chloro-2-fluorobenzyl) piperidine-4-carboxylic acid] | – | – | IC50 Ratio Aur B/Aur A [2]: 1444; pIC50 [3]: 9.04 |
| Cc1cc(Nc2cc(C)c(F)c(C[C@@]3(C(=O)O)CCN(Cc4cccc(Cl)c4F)[C@H](C)C3)n2)n[nH]1 [Example 49, (2R,4R)-1-(3-chloro-2-fluorobenzyl)-4-((3-fluoro-4-methyl-6-((5-methyl-1H-pyraz-ol-3-yl)amino)pyridin-2-yl)methyl)-2-methylpiperidine-4-carboxylic acid] | 90% | 160 ± 26 mm^3 | – |
| Cc1cc(Nc2ccc(F)c(C[C@@]3(C(=O)O)CCN(Cc4cccc(Cl)c4F)[C@H](C)C3)n2)n[nH]1 [LY3295668] | – | – | CL ([4]; IV: 3 mg/kg): 1.52 mL/min/kg; Vss ([4]; IV: 3 mg/kg): 0.29 L/kg; AUClast ([4]; PO: 10 mg/kg): 91211 ng·h/mL; Cmax ([4]; PO: 10 mg/kg): 15033 ng/mL; t½ ([4]; PO: 10 mg/kg): 3.37 h; F % ([4]; PO: 10 mg/kg vs IV: 3 mg/kg): 81% |

From patent US20230128198A1, “NOVEL HETEROCYCLIC COMPOUNDS USEFUL AS AURORA A SELECTIVE INHIBITORS” (JACOBIO PHARMACEUTICALS CO., LTD., priority 2020, published 2023)
